Measurements reported in US20240239767A1 (AstraZeneca AB, priority 2022, published 2024).

Columns and labels:
PCSK9 [1] = target: T1, PCSK9 (Homo sapiens, UniProt Q8NBP7, G670E/V474I); test: biochemical
Target sequence in this assay (Q8NBP7 with tags, fused parts or gaps V474I/G670E): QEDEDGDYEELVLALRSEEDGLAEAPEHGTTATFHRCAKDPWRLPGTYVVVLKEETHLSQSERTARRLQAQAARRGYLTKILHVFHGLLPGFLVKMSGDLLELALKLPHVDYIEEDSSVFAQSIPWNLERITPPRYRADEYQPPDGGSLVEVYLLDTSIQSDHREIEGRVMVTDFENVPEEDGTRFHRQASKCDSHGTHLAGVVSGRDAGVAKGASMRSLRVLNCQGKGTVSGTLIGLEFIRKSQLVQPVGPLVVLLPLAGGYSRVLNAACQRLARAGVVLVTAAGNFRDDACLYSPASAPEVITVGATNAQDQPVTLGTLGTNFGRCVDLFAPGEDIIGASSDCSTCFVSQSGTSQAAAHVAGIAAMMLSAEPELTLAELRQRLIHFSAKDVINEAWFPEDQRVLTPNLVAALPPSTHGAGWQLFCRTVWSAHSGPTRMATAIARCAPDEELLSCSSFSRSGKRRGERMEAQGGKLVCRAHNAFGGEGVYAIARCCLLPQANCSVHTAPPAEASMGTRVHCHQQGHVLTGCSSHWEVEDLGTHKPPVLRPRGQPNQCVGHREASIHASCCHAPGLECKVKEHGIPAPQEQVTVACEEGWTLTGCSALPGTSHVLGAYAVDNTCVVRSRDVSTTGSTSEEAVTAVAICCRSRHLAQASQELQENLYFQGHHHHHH

[2] = target: GSK3b (Glycogen synthase kinase-3 beta) (Homo sapiens, UniProt P49841); test: Assay 6 - GSK3b assay (ThermoFisher, FRET Z-Lyte); format: biochemical; details: geometric mean; ATP Conc: 10.000 μM; read-out: Assay 6 (GSK3B FRET-Z-Lyte CR) GMean IC50 (μM) ATP Conc: 10.000
Procedure, shortened: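 Z-Lyte FRET kinase assay: 0.22-0.92 ng GSK3β with 2 μM Ser/Thr 09 peptide in 50 mM HEPES pH 7.5, 10 mM MgCl2, 1 mM EGTA, 0.01% BRIJ-35, 60 min at room temperature, then 60 min development. Compounds in 1% DMSO, 10-point 3-fold dilutions from 10 μM; sigmoidal dose-response fit.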

PCSK9 [3] = target: PCSK9 (Homo sapiens, UniProt Q8NBP7); test: Assay 2 - Biophysical human PCSK9 assay (SPR, Biacore); format: binding; set-up: biotinylated human PCSK9 (31-692)-Avi-His6; details: geometric mean; SPR single-cycle kinetics, 30° C.; read-out: Assay 2 (PCSK9 BIAcore DBA CR) GMean Kd
PCSK9 (Homo sapiens, UniProt Q8NBP7), sequence (Q8NBP7 31-692): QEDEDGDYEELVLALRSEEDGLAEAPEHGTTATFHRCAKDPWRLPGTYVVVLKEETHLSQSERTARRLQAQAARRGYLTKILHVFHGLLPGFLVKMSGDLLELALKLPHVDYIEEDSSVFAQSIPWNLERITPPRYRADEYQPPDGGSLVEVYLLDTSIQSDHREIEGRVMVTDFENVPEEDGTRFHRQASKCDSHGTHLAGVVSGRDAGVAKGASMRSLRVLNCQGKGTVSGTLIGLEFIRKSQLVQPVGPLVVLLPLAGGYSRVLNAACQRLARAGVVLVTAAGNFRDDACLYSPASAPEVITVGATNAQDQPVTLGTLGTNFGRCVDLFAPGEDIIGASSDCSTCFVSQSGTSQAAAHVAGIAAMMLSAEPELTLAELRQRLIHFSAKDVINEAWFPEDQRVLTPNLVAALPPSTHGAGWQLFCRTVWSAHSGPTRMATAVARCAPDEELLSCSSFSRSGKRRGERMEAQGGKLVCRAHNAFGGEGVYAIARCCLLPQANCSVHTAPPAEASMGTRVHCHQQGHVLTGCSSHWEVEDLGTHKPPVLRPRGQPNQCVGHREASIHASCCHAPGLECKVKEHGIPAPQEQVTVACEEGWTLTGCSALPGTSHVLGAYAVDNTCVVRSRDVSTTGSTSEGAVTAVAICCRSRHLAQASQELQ
Method: The SPR binding experiments were performed on a Biacore S200 optical biosensor unit at 30° C. A Series S Sensor Chip SA that is designed to bind biotinylated molecules for interaction analysis in Biacore systems was equilibrated at room temperature prior to use. The running buffer for protein tethering and subsequent ligand binding experiments was 10 mM HEPES pH 7.4, 150 mM NaCl, 0.05% (v/v) Tween 20 pH 7.4.
For the surface tethering of PCSK9, biotinylated human PCSK9 (31-692)-Avi-His6 at a concentration of 0.5 mg/mL was used. Prior to the surface tethering, the surface was exposed to a solution of 50 mM NaOH, 500 mM NaCl via 3 consecutive injections of this solution with a contact time of 60 s and a flowrate of 10 μL min- to remove non-conjugated streptavidin. The PCSK9 protein was diluted to a concentration of 20 μg/mL using running buffer and injected with a contact time of 180-300 s and a flowrate of 10 μL min^−1 over a single flow channel (typically flow channel 2 or flow channel 4) with the aim to achieve protein capture levels of >5000 response units (RU). Remaining biotin binding sites were blocked via 2 consecutive injections of a 10 μM D-biotin solution in running buffer with a contact time of 60 s and a flowrate of 10 μL min^−1 over all flow-channels.
The binding experiments were all performed at a flow rate of 30 μL min^−1 and by employing the method of single-cycle kinetics. This approach involves the sequential injection of a compound concentration series without regeneration steps. A contact time between 90-150 s was selected, which was followed by a 40 min dissociation phase to allow for a proper estimation of the dissociation rate constant. Test compounds were delivered in DMSO at a concentration of 10 mM and a digital dispenser HP D300 was used to set up the compound concentration series using 6 concentrations. The tested concentrations have been 30, 100, 300, 1000, 3000 and 10000 nM. Prior to injecting any compound, the surfaces were equilibrated by injecting running buffer over them in three separate pulses. The data collection rate was set to 10 Hz.
The raw sensorgrams of the compound injections were first subjected to reference subtraction (subtracting the signal from flow channel 1 and/or 3 from the signal from channels 2 and/or 4 respectively) and then blank subtraction (subtracting the signal from injecting DMSO controls from the reference subtracted data). The resulting double-referenced sensorgrams were then fitted using a 1:1 binding interaction model using the manufactures software package to extract kinetic- and affinity data.

[4] = target: T2, potassium ion channel hERG (human Ether-á-go-go-Related Gene) (Homo sapiens, UniProt Q12809); test: Assay 5 - hERG assay (SyncroPatch 384PE patch clamp, CHO cells); format: cell-based; details: geometric mean, CHO cells over-expressing hERG, read-out: Assay 5 (hERG Hu CHO IF EPh CR-Syncro) GMean IC50
T2 construct: expressed in transfected cells; host or cells: Chinese hamster ovary K1 (CHO)
T2 sequence (Q12809 whole entry): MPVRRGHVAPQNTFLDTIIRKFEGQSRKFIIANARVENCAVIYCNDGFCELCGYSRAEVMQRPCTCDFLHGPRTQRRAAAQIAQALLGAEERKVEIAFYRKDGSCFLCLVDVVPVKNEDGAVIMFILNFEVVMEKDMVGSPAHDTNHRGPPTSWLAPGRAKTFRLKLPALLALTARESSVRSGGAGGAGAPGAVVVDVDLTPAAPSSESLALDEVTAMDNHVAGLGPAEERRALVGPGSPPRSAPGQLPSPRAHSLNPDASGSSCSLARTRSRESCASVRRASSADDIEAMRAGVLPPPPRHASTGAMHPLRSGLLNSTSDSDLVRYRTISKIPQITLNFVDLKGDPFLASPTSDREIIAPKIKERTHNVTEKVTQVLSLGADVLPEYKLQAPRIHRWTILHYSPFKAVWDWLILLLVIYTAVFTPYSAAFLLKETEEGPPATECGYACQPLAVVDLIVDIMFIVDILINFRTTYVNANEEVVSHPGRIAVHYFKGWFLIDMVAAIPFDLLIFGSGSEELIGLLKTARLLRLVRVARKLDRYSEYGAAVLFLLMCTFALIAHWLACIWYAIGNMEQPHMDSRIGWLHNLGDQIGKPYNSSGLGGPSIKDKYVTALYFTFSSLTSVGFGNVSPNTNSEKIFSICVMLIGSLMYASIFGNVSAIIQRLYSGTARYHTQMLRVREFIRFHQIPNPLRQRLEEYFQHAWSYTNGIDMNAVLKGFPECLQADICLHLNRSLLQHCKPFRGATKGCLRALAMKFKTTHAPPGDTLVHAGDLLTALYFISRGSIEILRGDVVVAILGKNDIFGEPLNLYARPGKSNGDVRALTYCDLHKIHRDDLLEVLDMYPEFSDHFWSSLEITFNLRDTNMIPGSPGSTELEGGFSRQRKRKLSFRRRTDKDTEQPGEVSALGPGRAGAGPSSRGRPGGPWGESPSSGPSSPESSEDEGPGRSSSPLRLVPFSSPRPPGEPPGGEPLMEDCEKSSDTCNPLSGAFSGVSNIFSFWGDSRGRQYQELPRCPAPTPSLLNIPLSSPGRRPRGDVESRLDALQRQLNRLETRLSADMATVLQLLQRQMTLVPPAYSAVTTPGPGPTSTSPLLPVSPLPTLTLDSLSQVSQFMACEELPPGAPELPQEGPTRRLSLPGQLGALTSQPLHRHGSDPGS
Procedure, shortened: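 Automated whole-cell patch clamp at room temperature on CHO-K1 cells over-expressing hERG, using K-fluoride/escin internal solution (pH 7.2) and NMDG-containing external solution (pH 7.4). Compounds were tested in a 6-point cumulative format, 0.33% final DMSO. Wells accepted only with seal >30 MegaOhm, Z′>0.4 and current >0.2 nA.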

PCSK9 [5] = target: T1, PCSK9; test: cell-based
Target sequence in this assay (Q8NBP7 31-152): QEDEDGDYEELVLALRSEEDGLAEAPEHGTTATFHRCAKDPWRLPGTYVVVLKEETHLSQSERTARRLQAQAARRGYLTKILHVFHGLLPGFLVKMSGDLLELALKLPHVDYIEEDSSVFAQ
Target sequence in this assay (Q8NBP7 153-692 V474I/G670E): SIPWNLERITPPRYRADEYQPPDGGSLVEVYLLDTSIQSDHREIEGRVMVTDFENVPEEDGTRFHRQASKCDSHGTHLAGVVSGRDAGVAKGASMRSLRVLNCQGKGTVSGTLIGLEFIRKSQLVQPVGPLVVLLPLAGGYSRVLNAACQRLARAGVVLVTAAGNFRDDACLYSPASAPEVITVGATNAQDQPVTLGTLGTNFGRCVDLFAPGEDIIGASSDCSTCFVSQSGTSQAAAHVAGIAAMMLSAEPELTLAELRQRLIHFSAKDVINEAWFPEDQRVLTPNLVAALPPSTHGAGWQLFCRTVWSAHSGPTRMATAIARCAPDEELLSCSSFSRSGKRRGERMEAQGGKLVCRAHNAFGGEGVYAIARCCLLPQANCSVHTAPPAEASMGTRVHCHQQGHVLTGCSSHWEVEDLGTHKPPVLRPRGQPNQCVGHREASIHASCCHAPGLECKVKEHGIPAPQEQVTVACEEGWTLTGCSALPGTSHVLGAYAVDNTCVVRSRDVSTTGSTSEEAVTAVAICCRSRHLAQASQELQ
Description: This assay measures for PCSK9 antagonist activity based on a test compound's capacity to restore LDL-C uptake in HepG2 cells. The assay is based on exogenous PCSK9 and LDL-C complexed with a pH-sensitive dye. Outside the cells, at neutral pH, the pHrodo Red-LDL is dimly fluorescent but upon LDLR mediated endocytosis it fluoresces brightly. PCSK9 traffics the LDLR to intracellular degradation and reduces uptake of LDL-C. Inhibition of PCSK9 reduces LDLR degradation and the increased LDL-C uptake is quantified by fluorescence microscopy.
Cell medium: MEM supplemented with 10% FBS, 1× NEAA and Sodium Pyruvate
Assay medium: OptiMem supplemented with penicillin/streptomycin
Cells: HepG2 (ATCC #HB-8065)
Cryopreserved HepG2 cells were thawed in assay medium and centrifuged for 5 min at 250 g. Supernatant was discarded and the cell pellet resuspended in cell medium and counted with a Nucleocounter. Cells were again centrifuged 5 min at 250 g and the pellet was resuspended to 500000 cells/mL in assay medium. • 2. 20 μL of above cell mix was dispensed into black pclear TC treated 384 well plates with Multidrop Combi and left at room temperature for 20 minutes. • 3. Plates were incubated at 37° C., 5% CO2 for 24 h
Test compounds were prepared in concentration response in DMSO with a half-log dilution factor in DMSO in Echo 384 LDV plates starting at 10 mM. • 2. 30 nL of above test compounds were dispensed with Echo 655 to cells for a top concentration of 10 μM • 3. […] Plates were incubated at 37° C., 5% CO2 for 24 h
10 μL pHrodo Red-LDL in assay medium was dispensed to cells with Multidrop Combi for 6 μg/mL • 2. Plates were incubated at 37° C., 5% CO2 and imaged with the Incucyte S3 after 4 h and 24 h
Image data was processed using Incucyte 2021, a software to identify cells and red fluorescent intensity. Screener was used to further process data. Data was normalized as % effect of the signal between median values of the on-plate controls of DMSO and 100 nM Evolocumab according to the formula % effect=−100*(x−DMSO)/(Evolocumab−DMSO) where x equals the measured signal. Concentration response data of the normalized values were fitted using a four-parameter logistic fit.

GSK3b (Glycogen synthase kinase-3 beta), sequence (P49841 whole entry): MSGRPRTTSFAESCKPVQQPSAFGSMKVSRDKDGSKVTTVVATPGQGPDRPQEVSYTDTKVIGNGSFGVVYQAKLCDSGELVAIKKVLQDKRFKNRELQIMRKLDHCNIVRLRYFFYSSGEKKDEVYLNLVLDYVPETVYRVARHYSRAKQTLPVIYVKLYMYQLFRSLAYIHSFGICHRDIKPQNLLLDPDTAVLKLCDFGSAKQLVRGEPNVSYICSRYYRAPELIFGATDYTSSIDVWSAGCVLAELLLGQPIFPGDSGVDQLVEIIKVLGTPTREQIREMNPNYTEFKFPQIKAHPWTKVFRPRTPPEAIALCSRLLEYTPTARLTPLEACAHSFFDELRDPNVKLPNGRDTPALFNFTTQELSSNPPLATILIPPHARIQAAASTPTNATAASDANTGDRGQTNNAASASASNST

Row | Structure (SMILES) | IC50 (PCSK9 [1]) | IC50 [2] | Kd (PCSK9 [3]) | IC50 [4] | IC50 (PCSK9 [5])
1 | O=c1ccccn1-c1ccc(N[C@H]2CC[C@H](Nc3nc4ccc(CO)cc4o3)C2)nc1 [Example 4, 6′-(((1S,3S)-3-((6-(Hydroxymethyl)benzo[d]oxazol-2-yl)amino)cyclopentyl)amino)-2H-[1,3′-bipyridin]-2-one] | 32.2 nM | > 10 µM | 49 nM | > 40000 nM | 
2 | O=c1ccccn1-c1ccc(N[C@H]2CC[C@H](Nc3nc4ccccc4[nH]3)C2)nc1 [Example 10, 6′-(((1S,3S)-3-((1H-Benzo[d]imidazol-2-yl)amino)cyclopentyl)amino)-2H-[1,3′-bipyridin]-2-one] | 2470 nM | > 10 µM | 1550 nM | 4000 nM | 
3 | O=c1ccccn1-c1ccc(N[C@H]2CC[C@H](Nc3nc4cccnc4o3)C2)nc1 [Example 11, 6′-(((1S,3S)-3-(Oxazolo[5,4-b]pyridin-2-ylamino)cyclopentyl)amino)-2H-[1,3′-bipyridin]-2-one] | 28 nM | > 10 µM | 24 nM | > 40000 nM | 
4 | COc1cccn(-c2ccc(N[C@H]3CC[C@H](Nc4nc5cccnc5o4)C3)nc2)c1=O [Example 12, 3-Methoxy-6′-(((1S,3S)-3-(oxazolo[5,4-b]pyridin-2-ylamino)cyclopentyl)amino)-2H-[1,3′-bipyridin]-2-one] | 3.5 nM | > 10 µM | 3 nM | > 40000 nM | 158 nM
5 | N#Cc1cccn(-c2ccc(N[C@H]3CC[C@H](Nc4nc5cccnc5o4)C3)nc2)c1=O [Example 15, 6′-(((1S,3S)-3-(Oxazolo[5,4-b]pyridin-2-ylamino)cyclopentyl)amino)-2-oxo-2H-[1,3′-bipyridine]-3-carbonitrile] | 3.1 nM | > 10 µM | 3 nM | > 40000 nM | 76 nM
6 | Cn1c(=O)n(-c2ccc(N[C@H]3CC[C@H](Nc4nc5cccnc5o4)C3)nc2)c2ncccc21 [Example 18, 1-Methyl-3-(6-(((1S,3S)-3-(oxazolo[5,4-b]pyridin-2-ylamino)cyclopentyl)amino)pyridin-3-yl)-1,3-dihydro-2H-imidazo[4,5-b]pyridin-2-one] | 2.3 nM | > 10 µM | 3 nM | > 40000 nM | 52 nM
7 | O=c1ccccn1-c1ccc(N[C@H]2CC[C@H](Nc3nc4cccnc4s3)C2)nc1 [Example 19, 6′-(((1S,3S)-3-(Thiazolo[5,4-b]pyridin-2-ylamino)cyclopentyl)amino)-2H-[1,3′-bipyridin]-2-one] | 4.4 nM | > 10 µM | 4 nM | > 40000 nM | 157 nM
8 | O=c1ccccn1-c1ccc(N[C@H]2CC[C@H](Nc3nc4ncccc4s3)C2)nc1 [Example 20, 6′-(((1S,3S)-3-(Thiazolo[4,5-b]pyridin-2-ylamino)cyclopentyl)amino)-2H-[1,3′-bipyridin]-2-one] | 603 nM | > 10 µM | 672 nM | > 40100 nM | 
9 | COc1cccn(-c2ccc(N[C@H]3CC[C@H](Nc4nc5cccnc5s4)C3)nc2)c1=O [Example 21, 3-Methoxy-6′-(((1S,3S)-3-(thiazolo[5,4-b]pyridin-2-ylamino)cyclopentyl)amino)-2H-[1,3′-bipyridin]-2-one] | 1.5 nM | > 10 µM | 0.5 nM | > 40000 nM | 100 nM
10 | O=c1c(Cl)cccn1-c1ccc(N[C@H]2CC[C@H](Nc3nc4cccnc4s3)C2)nc1 [Example 24, 3-Chloro-6′-(((1S,3S)-3-(thiazolo[5,4-b]pyridin-2-ylamino)cyclopentyl)amino)-2H-[1,3′-bipyridin]-2-one] | 0.7 nM | > 10 µM | 0.1 nM | 13900 nM | 76 nM
11 | COc1ccc(=O)n(-c2ccc(N[C@H]3CC[C@H](Nc4nc5cccnc5s4)C3)nc2)c1 [Example 25, 5-Methoxy-6′-(((1S,3S)-3-(thiazolo[5,4-b]pyridin-2-ylamino)cyclopentyl)amino)-2H-[1,3′-bipyridin]-2-one] | 5.6 nM | 0.053 µM | 4 nM | > 40000 nM | 51 nM
12 | O=c1ccc2cccnc2n1-c1ccc(N[C@H]2CC[C@H](Nc3nc4cccnc4[nH]3)C2)nc1 [Example 34, 1-(6-(((1S,3S)-3-((3H-Imidazo[4,5-b]pyridin-2-yl)amino)cyclopentyl)amino)pyridin-3-yl)-1,8-naphthyridin-2(1H)-one] | 1.2 nM | > 10 µM | 1 nM | > 40000 nM | 98 nM
13 | CN1C(=O)CN(c2ccc(N[C@H]3CC[C@H](Nc4nc5cccnc5[nH]4)C3)nc2)C1=O [Example 37, 1-(6-(((1S,3S)-3-((3H-Imidazo[4,5-b]pyridin-2-yl)amino)cyclopentyl)amino)pyridin-3-yl)-3-methylimidazolidine-2,4-dione] | 4.4 nM | > 10 µM | 3 nM | > 40000 nM | 127 nM
14 | O=c1ccccn1-c1ccc(N[C@H]2CC[C@H](Nc3nc4cc(OC(F)F)cnc4[nH]3)C2)nc1 [Example 60, 6′-(((1S,3S)-3-((6-(Difluoromethoxy)-3H-imidazo[4,5-b]pyridin-2-yl)amino)cyclopentyl)amino)-2H-[1,3′-bipyridin]-2-one] | 0.6 nM |  | 1 nM | 33000 nM | 41 nM
15 | COc1cccc(F)c1-c1ccc(N[C@H]2CC[C@H](Nc3nc4cccnc4[nH]3)C2)nc1 [Example 67, (1S,3S)—N^1-(5-(2-Fluoro-6-methoxyphenyl)pyridin-2-yl)-N^3-(3H-imidazo[4,5-b]pyridin-2-yl)cyclopentane-1,3-diamine] | 18.1 nM | > 10 µM | 57 nM | 3980 nM | 
16 | O=c1ccc(OC(F)F)cn1-c1ccc(N[C@H]2CC[C@H](Nc3nc4cccnc4o3)C2)nc1 [Example 78, 5-(Difluoromethoxy)-6′-(((1S,3S)-3-(oxazolo[5,4-b]pyridin-2-ylamino)cyclopentyl)amino)-2H-[1,3′-bipyridin]-2-one] | 18.9 nM | > 10 µM |  | 39600 nM | 367 nM
17 | O=c1c(OC(F)F)cccn1-c1ccc(N[C@H]2CC[C@H](Nc3nc4cccnc4o3)C2)nc1 [Example 79, 3-(Difluoromethoxy)-6′-(((1S,3S)-3-(oxazolo[5,4-b]pyridin-2-ylamino)cyclopentyl)amino)-2H-[1,3′-bipyridin]-2-one] | 4.1 nM | > 10 µM |  | 4570 nM | 123 nM
18 | O=c1ccccn1-c1ccc(N[C@H]2CC[C@H](Nc3nc4nccnc4[nH]3)C2)nc1 [Example 80, 6′-(((1S,3S)-3-((1H-Imidazo[4,5-b]pyrazin-2-yl)amino)cyclopentyl)amino)-2H-[1,3′-bipyridin]-2-one] | 5.1 nM | 0.305 µM |  | > 40000 nM | 158 nM
19 | O=c1c(OC(F)F)cccn1-c1ccc(N[C@H]2CC[C@H](Nc3nc4cccnc4s3)C2)nc1 [Example 81, 3-(Difluoromethoxy)-6′-(((1S,3S)-3-(thiazolo[5,4-b]pyridin-2-ylamino)cyclopentyl)amino)-2H-[1,3′-bipyridin]-2-one] | 1.5 nM | > 10 µM |  | 6120 nM | 108 nM
